Assay results published in PubChem BioAssay (NCI).
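Briefly, cells in 96-well plates were exposed to five compound concentrations for 48 h, and endpoints were estimated by linear interpolation. GI50 marks 50% less growth. TGI: concentration producing complete growth inhibition.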 Where a SMILES comes first, the peptide text is derived from it. [ ]: non-standard residue; d: D form. The star is where a group is joined. Ac5c = NC1(C(=O)O)CCCC1; Boc = CC(C)(C)OC(=O)*; tBu = CC(C)(C)*

Experiments:
Assay in all cases: DTP human tumour cell line panel, 48 h
[1] = system: HOP-92 NSCLC
[2] = system: NCI-H226 lung
[3] = system: NCI-H23 lung
[4] = system: UACC-257 melanoma
[5] = system: 786-0 renal
[6] = system: A549 NSCLC
[7] = system: ACHN renal
[8] = system: CAKI-1 renal
[9] = system: CCRF-CEM leukemia
[10] = system: COLO 205 colon
[11] = system: HL-60(TB) leukemia
[12] = system: HOP-62 NSCLC
[13] = system: IGROV1 ovarian
[14] = system: K-562 leukemia
[15] = system: M14 melanoma
[16] = system: MALME-3M melanoma
[17] = system: MCF7 breast
[18] = system: MDA-MB-435
[19] = system: MOLT-4 leukemia
[20] = system: NCI-H460 lung
[21] = system: NCI/ADR-RES ovarian
[22] = system: OVCAR-4 ovarian
[23] = system: OVCAR-5 ovarian
[24] = system: RPMI-8226 leukemia
[25] = system: RXF 393 renal
[26] = system: SF-268 CNS
[27] = system: SK-MEL-2 melanoma
[28] = system: SK-MEL-28 melanoma
[29] = system: SK-MEL-5 melanoma
[30] = system: SK-OV-3 ovarian
[31] = system: SNB-75 CNS
[32] = system: SR leukemia
[33] = system: SW-620 colon
[34] = system: T-47D breast
[35] = system: U251 CNS
[36] = system: UACC-62 melanoma
[37] = system: BT-549 breast
[38] = system: DU-145 prostate
[39] = system: EKVX NSCLC
[40] = system: HCC-2998 colon
[41] = system: HCT-116 colon
[42] = system: HCT-15 colon
[43] = system: HS 578T breast
[44] = system: HT29 colon
[45] = system: KM12 colon
[46] = system: LOX IMVI melanoma
[47] = system: MDA-MB-231 breast
[48] = system: NCI-H522 lung
[49] = system: OVCAR-3 ovarian
[50] = system: OVCAR-8 ovarian
[51] = system: PC-3 prostate
[52] = system: SF-295 CNS
[53] = system: SF-539 CNS
[54] = system: SN12C renal
[55] = system: SNB-19 CNS
[56] = system: TK-10 renal
[57] = system: UO-31 renal

CC(OC(C)(C)C)C1NC(=O)C(CCCCNC(=O)OC(C)(C)C)NC(=O)C(Cc2c[nH]c3ccccc23)NC(=O)C(Cc2ccccc2)NC(=O)C2(CCCC2)NC(=O)C(Cc2ccccc2)NC1=O (configuration not stated) (cyclo([Ac5c]FWK(Boc)T(tBu)F); configuration not given here)
TGI [1]: 67.1 µM
TGI [2]: 47.6 µM
TGI [3]: > 100 µM
TGI [4]: 46.6 µM

C=CCNc1nc2c(N)ncnc2s1
TGI [5]: > 10 µM
TGI [6]: > 10 µM
TGI [7]: > 10 µM
TGI [8]: > 10 µM
TGI [9]: > 10 µM
TGI [10]: > 10 µM
TGI [11]: > 10 µM
TGI [12]: > 10 µM
TGI [1]: > 10 µM
TGI [13]: > 10 µM
TGI [14]: > 10 µM
TGI [15]: > 10 µM
TGI [16]: > 10 µM
TGI [17]: > 10 µM
TGI [18]: > 10 µM
TGI [19]: > 10 µM
TGI [3]: > 10 µM
TGI [20]: > 10 µM
TGI [21]: > 10 µM
TGI [22]: > 10 µM
TGI [23]: > 10 µM
TGI [24]: > 10 µM
TGI [25]: > 10 µM
TGI [26]: > 10 µM
TGI [27]: > 10 µM
TGI [28]: > 10 µM
TGI [29]: > 10 µM
TGI [30]: > 10 µM
TGI [31]: > 10 µM
TGI [32]: > 10 µM
TGI [33]: > 10 µM
TGI [34]: > 10 µM
TGI [35]: > 10 µM
TGI [36]: > 10 µM

C#Cc1cccc(NC(=O)C2CCCCN2C(=O)CCl)c1 (configuration not stated)
GI50 [5]: 16.2 µM
TGI [5]: 32 µM
GI50 [6]: > 82.5 µM
TGI [6]: > 82.5 µM
GI50 [7]: 13.1 µM
TGI [7]: 24.5 µM
GI50 [37]: 12.5 µM
TGI [37]: 27.2 µM
GI50 [8]: 13.4 µM
TGI [8]: 26.3 µM
GI50 [9]: 3.99 µM
TGI [9]: 50.1 µM
GI50 [10]: 15.6 µM
TGI [10]: 34.7 µM
GI50 [38]: 24.4 µM
TGI [38]: > 82.5 µM
GI50 [39]: > 82.5 µM
TGI [39]: > 82.5 µM
GI50 [40]: 28.6 µM
TGI [40]: > 82.5 µM
GI50 [41]: 13.7 µM
TGI [41]: 43.2 µM
GI50 [42]: 9.61 µM
TGI [42]: 23.4 µM
GI50 [11]: 16.8 µM
TGI [11]: 51.7 µM
GI50 [12]: > 82.5 µM
TGI [12]: > 82.5 µM
GI50 [1]: 12.5 µM
TGI [1]: 43.3 µM
GI50 [43]: 18.4 µM
TGI [43]: 76.4 µM
GI50 [44]: 18.7 µM
TGI [44]: 41.9 µM
GI50 [13]: 9.72 µM
TGI [13]: 27.1 µM
GI50 [14]: 15.3 µM
TGI [14]: > 82.5 µM
GI50 [45]: 37.1 µM
TGI [45]: > 82.5 µM
GI50 [46]: 7.6 µM
TGI [46]: 18.6 µM
GI50 [15]: 18.8 µM
TGI [15]: 74.9 µM
GI50 [16]: 9.93 µM
TGI [16]: 22.4 µM
GI50 [17]: 15.8 µM
TGI [17]: > 82.5 µM
GI50 [47]: 13.1 µM
TGI [47]: 28.7 µM
GI50 [18]: 15.8 µM
TGI [18]: 60.7 µM
GI50 [19]: 12 µM
TGI [19]: 52.9 µM
GI50 [2]: 52.1 µM
TGI [2]: > 82.5 µM
GI50 [3]: 10.7 µM
TGI [3]: 28.2 µM
GI50 [20]: 23.9 µM
TGI [20]: > 82.5 µM
GI50 [48]: 8.72 µM
TGI [48]: 24.4 µM
GI50 [21]: 16.5 µM
TGI [21]: 47.3 µM
GI50 [49]: 10.1 µM
TGI [49]: 22.2 µM
GI50 [22]: 8.77 µM
TGI [22]: 24.5 µM
GI50 [23]: 13.1 µM
TGI [23]: 27.2 µM
GI50 [50]: 20.3 µM
TGI [50]: > 82.5 µM
GI50 [51]: 32.9 µM
TGI [51]: > 82.5 µM
GI50 [24]: 18 µM
TGI [24]: 51.5 µM
GI50 [25]: 13.4 µM
TGI [25]: 34.4 µM
GI50 [26]: 21.1 µM
TGI [26]: 75.2 µM
GI50 [52]: > 82.5 µM
TGI [52]: > 82.5 µM
GI50 [53]: 17.4 µM
TGI [53]: 49.4 µM
GI50 [27]: 23.9 µM
TGI [27]: > 82.5 µM
GI50 [28]: 54.1 µM
TGI [28]: > 82.5 µM
GI50 [29]: 9.54 µM
TGI [29]: 41.2 µM
GI50 [30]: > 82.5 µM
TGI [30]: > 82.5 µM
GI50 [54]: 12.2 µM
TGI [54]: 28.4 µM
GI50 [55]: > 82.5 µM
TGI [55]: > 82.5 µM
GI50 [31]: 17.9 µM
TGI [31]: > 82.5 µM
GI50 [32]: 3.6 µM
TGI [32]: 66.8 µM
GI50 [33]: 12.1 µM
TGI [33]: 31.5 µM
GI50 [34]: 16 µM
TGI [34]: > 82.5 µM
GI50 [56]: 15.6 µM
TGI [56]: 33.6 µM
GI50 [35]: 15.1 µM
TGI [35]: 35.8 µM
GI50 [4]: 26.2 µM
TGI [4]: > 82.5 µM
GI50 [36]: 18.9 µM
TGI [36]: > 82.5 µM
GI50 [57]: 13.6 µM
TGI [57]: 25.7 µM
